# What was measured:
# [1] = biological target: JAK1 (Homo sapiens (Human), UniProt P23458); assay: Biochemical JAK kinase assay (LanthaScreen), JAK1; settings: for Ki: read-out: JAK1 pKi (converted)
# In short: (§1)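 LanthaScreen format: phospho-STAT1 (pTyr701) detected with 2 nM Tb antibody after 10 mM EDTA quench. Kinase step used Km-level ATP and 200 nM STAT1 peptide, 1 h at ambient after 1 h pre-incubation. Inhibition fitted to IC50, reported as pKi.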
# [2] = biological target: TYK2 (Homo sapiens (Human), UniProt P29597); assay: Biochemical JAK kinase assay (LanthaScreen), Tyk2; settings: read-out: Tyk2 pKi (converted)
# In short: as §1
# [3] = system: IL-13 induced STAT6 phosphorylation in BEAS-2B human lung epithelial cells; assay: Cellular JAKI potency assay (BEAS-2B); type: cell-based; settings: BEAS-2B cells; for IC50: Homo sapiens, BEAS-2B, read-out: BEAS2B pIC50 (converted)
# In short: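 BEAS-2B cells were preincubated with compound (0.1% DMSO) in HBSS/HEPES/BSA for 1 h at 37 °C, then stimulated with IL-13 (80 ng/mL before addition) for 30 min. After lysis, pSTAT6 (Tyr641) was quantified by AlphaLISA SureFire; IC50 from a 4-parameter fit of percent inhibition, reported as pIC50.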
# [4] = biological target: JAK2 (Homo sapiens (Human), UniProt O60674); assay: Biochemical JAK kinase assay (LanthaScreen), JAK2; settings: for Ki: read-out: JAK2 pKi (converted)
# In short: as §1
# [5] = biological target: JAK3 (Homo sapiens (Human), UniProt P52333); assay: Biochemical JAK kinase assay (LanthaScreen), JAK3; settings: read-out: JAK3 pKi (converted)
# Protocol: A panel of four LanthaScreen JAK biochemical assays (JAK1, 2, 3 and Tyk2) were carried in a common kinase reaction buffer (50 mM HEPES, pH 7.5, 0.01% Brij-35, 10 mM MgCl2, and 1 mM EGTA). Recombinant GST-tagged JAK enzymes and a GFP-tagged STAT1 peptide substrate were obtained from Life Technologies.
# Serially diluted compounds were pre-incubated with each of the four JAK enzymes and the substrate in white 384-well microplates (Corning) at ambient temperature for 1 h. ATP was subsequently added to initiate the kinase reactions in 10 μL total volume, with 1% DMSO. The final enzyme concentrations for JAK1, 2, 3 and Tyk2 are 4.2 nM, 0.1 nM, 1 nM, and 0.25 nM respectively; the corresponding Km ATP concentrations used are 25 μM, 3 μM, 1.6 μM, and 10 μM; while the substrate concentration is 200 nM for all four assays. Kinase reactions were allowed to proceed for 1 hour at ambient temperature before a 10 μL preparation of EDTA (10 mM final concentration) and Tb-anti-pSTAT1 (pTyr701) antibody (Life Technologies, 2 nM final concentration) in TR-FRET dilution buffer (Life Technologies) was added. The plates were allowed to incubate at ambient temperature for 1 h before being read on the EnVision reader (Perkin Elmer). Emission ratio signals (520 nm/495 nm) were recorded and utilized to calculate the percent inhibition values based on DMSO and background controls.
# For dose-response analysis, percent inhibition data were plotted vs. compound concentrations, and IC50 values were determined from a 4-parameter robust fit model with the Prism software (GraphPad Software). Results were expressed as pIC50 (negative logarithm of IC50) and subsequently converted to pKi (negative logarithm of dissociation constant, Ki) using the Cheng-Prusoff equation.
# Test compounds having a lower Ki value or higher pKi value in the four JAK assays show greater inhibition of JAK activity.
# Sequence of JAK2 (O60674 whole entry): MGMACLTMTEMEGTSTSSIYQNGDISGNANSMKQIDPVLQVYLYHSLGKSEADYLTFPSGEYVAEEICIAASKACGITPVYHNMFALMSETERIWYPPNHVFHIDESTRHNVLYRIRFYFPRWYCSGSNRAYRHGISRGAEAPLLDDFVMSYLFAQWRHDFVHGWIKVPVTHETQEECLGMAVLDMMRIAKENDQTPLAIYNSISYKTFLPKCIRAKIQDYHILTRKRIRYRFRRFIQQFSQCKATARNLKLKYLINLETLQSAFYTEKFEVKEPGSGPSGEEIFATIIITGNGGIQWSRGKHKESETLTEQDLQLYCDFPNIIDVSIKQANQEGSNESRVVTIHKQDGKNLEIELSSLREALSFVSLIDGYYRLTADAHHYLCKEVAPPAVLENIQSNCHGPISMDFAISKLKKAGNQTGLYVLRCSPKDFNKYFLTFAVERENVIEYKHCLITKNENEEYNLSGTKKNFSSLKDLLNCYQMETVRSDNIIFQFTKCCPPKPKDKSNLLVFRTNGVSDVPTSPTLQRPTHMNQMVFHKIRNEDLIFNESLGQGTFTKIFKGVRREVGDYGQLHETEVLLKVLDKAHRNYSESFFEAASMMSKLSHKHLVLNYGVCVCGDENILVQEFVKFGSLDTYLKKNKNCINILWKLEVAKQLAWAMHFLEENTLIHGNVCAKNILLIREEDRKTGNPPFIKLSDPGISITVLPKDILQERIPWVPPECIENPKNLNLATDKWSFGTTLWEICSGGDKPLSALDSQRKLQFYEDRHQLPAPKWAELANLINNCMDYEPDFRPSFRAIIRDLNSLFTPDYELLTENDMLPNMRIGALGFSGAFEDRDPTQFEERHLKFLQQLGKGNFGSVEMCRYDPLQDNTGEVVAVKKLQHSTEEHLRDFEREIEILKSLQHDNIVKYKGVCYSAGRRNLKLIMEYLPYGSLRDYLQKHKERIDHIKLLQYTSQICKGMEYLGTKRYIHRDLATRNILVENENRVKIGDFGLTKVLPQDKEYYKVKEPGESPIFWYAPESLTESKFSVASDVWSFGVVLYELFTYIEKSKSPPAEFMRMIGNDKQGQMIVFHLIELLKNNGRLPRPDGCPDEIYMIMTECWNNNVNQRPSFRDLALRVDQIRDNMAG
# Sequence of TYK2 (P29597 whole entry): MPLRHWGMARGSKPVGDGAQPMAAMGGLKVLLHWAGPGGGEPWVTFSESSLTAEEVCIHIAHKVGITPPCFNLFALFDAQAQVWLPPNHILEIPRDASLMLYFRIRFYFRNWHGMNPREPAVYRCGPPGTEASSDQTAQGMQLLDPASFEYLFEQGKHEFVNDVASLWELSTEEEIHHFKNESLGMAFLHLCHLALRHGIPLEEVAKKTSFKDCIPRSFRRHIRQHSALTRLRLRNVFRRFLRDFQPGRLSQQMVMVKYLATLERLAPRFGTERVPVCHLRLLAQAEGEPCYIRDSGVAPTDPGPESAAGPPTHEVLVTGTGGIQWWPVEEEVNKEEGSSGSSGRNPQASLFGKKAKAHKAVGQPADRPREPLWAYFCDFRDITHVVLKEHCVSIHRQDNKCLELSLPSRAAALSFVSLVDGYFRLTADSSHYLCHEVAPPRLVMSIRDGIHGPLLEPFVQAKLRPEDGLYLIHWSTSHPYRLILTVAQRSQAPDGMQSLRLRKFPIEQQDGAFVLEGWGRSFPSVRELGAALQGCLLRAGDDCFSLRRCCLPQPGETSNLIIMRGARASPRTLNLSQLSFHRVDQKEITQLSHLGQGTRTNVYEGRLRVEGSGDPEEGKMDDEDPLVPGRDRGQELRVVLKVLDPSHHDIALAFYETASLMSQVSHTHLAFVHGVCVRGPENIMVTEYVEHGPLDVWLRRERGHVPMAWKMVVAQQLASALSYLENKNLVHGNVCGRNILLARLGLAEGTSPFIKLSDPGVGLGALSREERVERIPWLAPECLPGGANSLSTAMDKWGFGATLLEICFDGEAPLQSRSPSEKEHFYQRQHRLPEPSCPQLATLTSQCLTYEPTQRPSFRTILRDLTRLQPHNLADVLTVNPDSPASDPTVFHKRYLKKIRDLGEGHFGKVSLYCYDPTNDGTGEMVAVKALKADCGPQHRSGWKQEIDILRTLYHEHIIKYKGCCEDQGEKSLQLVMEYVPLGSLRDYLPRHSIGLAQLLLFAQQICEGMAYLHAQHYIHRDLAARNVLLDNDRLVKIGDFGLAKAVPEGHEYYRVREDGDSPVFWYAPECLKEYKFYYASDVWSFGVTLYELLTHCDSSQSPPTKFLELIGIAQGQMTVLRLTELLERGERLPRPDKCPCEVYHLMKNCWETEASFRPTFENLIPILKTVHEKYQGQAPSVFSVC
# Sequence of JAK3 (P52333 whole entry): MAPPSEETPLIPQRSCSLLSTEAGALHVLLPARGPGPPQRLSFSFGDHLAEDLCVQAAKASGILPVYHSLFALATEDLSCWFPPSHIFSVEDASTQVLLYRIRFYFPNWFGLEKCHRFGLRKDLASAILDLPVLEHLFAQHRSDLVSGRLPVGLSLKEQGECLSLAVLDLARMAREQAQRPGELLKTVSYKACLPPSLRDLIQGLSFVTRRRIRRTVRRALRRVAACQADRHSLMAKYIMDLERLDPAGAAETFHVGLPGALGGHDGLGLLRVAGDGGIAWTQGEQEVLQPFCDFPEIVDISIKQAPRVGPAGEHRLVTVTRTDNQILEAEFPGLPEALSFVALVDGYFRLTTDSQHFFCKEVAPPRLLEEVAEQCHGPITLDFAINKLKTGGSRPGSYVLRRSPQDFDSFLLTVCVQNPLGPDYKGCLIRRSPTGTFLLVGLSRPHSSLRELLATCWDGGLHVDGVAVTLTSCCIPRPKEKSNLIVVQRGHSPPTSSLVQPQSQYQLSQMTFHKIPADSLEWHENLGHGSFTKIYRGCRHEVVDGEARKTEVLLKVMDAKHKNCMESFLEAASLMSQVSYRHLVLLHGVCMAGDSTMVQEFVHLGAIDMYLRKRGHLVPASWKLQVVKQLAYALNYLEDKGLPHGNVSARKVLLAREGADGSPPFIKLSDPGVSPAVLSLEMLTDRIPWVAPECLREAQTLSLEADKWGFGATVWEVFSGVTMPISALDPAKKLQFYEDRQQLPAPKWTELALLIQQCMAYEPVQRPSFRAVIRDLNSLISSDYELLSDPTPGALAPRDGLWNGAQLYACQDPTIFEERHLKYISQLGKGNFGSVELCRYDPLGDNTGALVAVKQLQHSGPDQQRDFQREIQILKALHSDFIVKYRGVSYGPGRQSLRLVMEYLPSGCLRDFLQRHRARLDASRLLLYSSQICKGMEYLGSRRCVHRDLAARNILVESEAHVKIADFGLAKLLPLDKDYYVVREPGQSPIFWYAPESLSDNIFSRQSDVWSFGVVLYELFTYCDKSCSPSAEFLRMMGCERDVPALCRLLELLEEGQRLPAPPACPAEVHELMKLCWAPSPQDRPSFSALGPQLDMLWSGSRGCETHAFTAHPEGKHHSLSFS
# Sequence of JAK1 (P23458 whole entry): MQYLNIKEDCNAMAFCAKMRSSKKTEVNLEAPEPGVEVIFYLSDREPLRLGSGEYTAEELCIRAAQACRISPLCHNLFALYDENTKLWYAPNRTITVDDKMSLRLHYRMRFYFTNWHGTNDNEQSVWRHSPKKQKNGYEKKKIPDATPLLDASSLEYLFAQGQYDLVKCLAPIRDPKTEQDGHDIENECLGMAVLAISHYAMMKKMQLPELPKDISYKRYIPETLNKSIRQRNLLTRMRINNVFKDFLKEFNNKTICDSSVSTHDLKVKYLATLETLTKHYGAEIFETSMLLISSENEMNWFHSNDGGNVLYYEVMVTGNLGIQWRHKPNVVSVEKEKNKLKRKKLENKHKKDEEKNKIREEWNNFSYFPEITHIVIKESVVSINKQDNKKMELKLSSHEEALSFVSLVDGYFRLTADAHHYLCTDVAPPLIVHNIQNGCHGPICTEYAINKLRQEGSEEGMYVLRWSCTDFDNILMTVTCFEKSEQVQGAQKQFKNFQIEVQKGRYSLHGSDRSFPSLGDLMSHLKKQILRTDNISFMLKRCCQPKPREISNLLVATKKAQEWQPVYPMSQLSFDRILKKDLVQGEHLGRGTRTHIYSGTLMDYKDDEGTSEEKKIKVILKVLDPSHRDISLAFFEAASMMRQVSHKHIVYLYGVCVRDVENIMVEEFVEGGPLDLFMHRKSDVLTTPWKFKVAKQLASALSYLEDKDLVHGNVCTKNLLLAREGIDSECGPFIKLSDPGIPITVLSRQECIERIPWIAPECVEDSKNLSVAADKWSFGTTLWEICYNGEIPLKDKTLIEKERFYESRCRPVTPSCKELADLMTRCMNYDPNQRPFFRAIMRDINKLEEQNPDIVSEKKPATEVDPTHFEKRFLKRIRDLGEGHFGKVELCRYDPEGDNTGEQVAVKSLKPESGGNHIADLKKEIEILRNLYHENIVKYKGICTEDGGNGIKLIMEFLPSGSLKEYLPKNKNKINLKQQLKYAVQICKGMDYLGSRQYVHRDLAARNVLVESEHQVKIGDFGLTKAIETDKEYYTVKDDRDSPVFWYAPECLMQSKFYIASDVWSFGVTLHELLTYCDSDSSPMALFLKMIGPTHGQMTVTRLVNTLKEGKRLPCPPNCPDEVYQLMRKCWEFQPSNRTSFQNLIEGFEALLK
SMILES,Ki [1] [nM],Ki [2] [nM],IC50 [3] [nM],JAK2 pKi [4],Ki [5] [nM],Ki [4] [nM],JAK1 pKi [1],BEAS2B pIC50 [3]
CCc1cc(O)ccc1-c1ccc2c(-c3nc(C4=CCN(CCN(C)C)C4)c[nH]3)n[nH]c2c1F [Example 220],0.1 to 1,1 to 10,10 to 31.6,A (A represents a pKi value ≥10 (Ki≤0.1 nM)),0.1 to 1,,,
CCc1cc(O)ccc1-c1ccc2c(-c3nc(C4=CCN(C5CCCN(C)C5)C4)c[nH]3)n[nH]c2c1F (stereo not drawn) [Example 223],0.1 to 1,1 to 10,10 to 31.6,A (A represents a pKi value ≥10 (Ki≤0.1 nM)),0.1 to 1,,,
CCc1cc(O)ccc1-c1ccc2c(-c3nc(C4=C(C)CNCC4)c[nH]3)n[nH]c2c1 [Example 224],0.1 to 1,1 to 10,3.16 to 10,,0.1 to 1,0.1 to 1,,
CCc1cc(O)ccc1-c1ccc2c(-c3nc(C4=CC5CCCC(C4)N5)c[nH]3)n[nH]c2c1 (stereo not drawn) [Example 225],0.1 to 1,1 to 10,31.6 to 100,,0.1 to 1,0.1 to 1,,
CCc1cc(O)ccc1-c1ccc2c(-c3nc(C4=CC[C@H](C)NC4)c[nH]3)n[nH]c2c1 [Example 230],,1 to 10,3.16 to 10,A (A represents a pKi value ≥10 (Ki≤0.1 nM)),0.1 to 1,,A (A represents a pKi value ≥10 (Ki≤0.1 nM)),
CCc1cc(O)ccc1-c1ccc2c(-c3nc(C4=CC[C@@H](C)NC4)c[nH]3)n[nH]c2c1 [Example 231],0.1 to 1,1 to 10,3.16 to 10,A (A represents a pKi value ≥10 (Ki≤0.1 nM)),0.1 to 1,,,
CCc1cc(O)ccc1-c1ccc2c(-c3nc(C4=CC(C)NC4)c[nH]3)n[nH]c2c1 (stereo not drawn) [Example 238],0.1 to 1,10 to 100,3.16 to 10,,0.1 to 1,0.1 to 1,,
CCc1cc(O)ccc1-c1ccc2c(-c3nc(C4=CC(C)NC4)c[nH]3)n[nH]c2c1F (stereo not drawn) [Example 244],0.1 to 1,1 to 10,3.16 to 10,,0.1 to 1,0.1 to 1,,
CCc1cc(O)ccc1-c1ccc2c(-c3nc(C4=C[C@@H](CO)NC4)c[nH]3)n[nH]c2c1F [Example 245],0.1 to 1,10 to 100,31.6 to 100,,0.1 to 1,0.1 to 1,,
CCc1cc(O)ccc1-c1ccc2c(-c3nc(C4=C(C)CNC4)c[nH]3)n[nH]c2c1F [Example 293],0.1 to 1,0.1 to 1,3.16 to 10,,0.1 to 1,0.1 to 1,,
CCc1cc(O)ccc1-c1ccc2c(-c3nc(C4=CCNCC4C)c[nH]3)n[nH]c2c1 (stereo not drawn) [Example 298],0.1 to 1,0.1 to 1,10 to 31.6,,0.1 to 1,0.1 to 1,,
CCc1cc(O)ccc1-c1ccc2c(-c3nc(C4=C[C@H](C)NCC4)c[nH]3)n[nH]c2c1F [Example 299],0.1 to 1,0.1 to 1,10 to 31.6,,0.1 to 1,0.1 to 1,,
CCOC(=O)C1CC=C(c2c[nH]c(-c3n[nH]c4c(F)c(-c5ccc(O)cc5CC)ccc34)n2)CN1 (stereo not drawn) [Example 300],0.1 to 1,1 to 10,10 to 31.6,,0.1 to 1,0.1 to 1,,
CCc1cc(O)ccc1-c1ccc2c(-c3nc(C4=CCN([C@H]5CC[C@@H](O)CC5)C4)c[nH]3)n[nH]c2c1F [Example 305],0.1 to 1,0.1 to 1,,A (A represents a pKi value ≥10 (Ki≤0.1 nM)),0.1 to 1,,,B (B represents a pIC50 value between 7.5 (included) and 8)
CCOC[C@H]1C=C(c2c[nH]c(-c3n[nH]c4c(F)c(-c5ccc(O)cc5CC)ccc34)n2)CN1 [Example 307],0.1 to 1,1 to 10,10 to 31.6,,0.1 to 1,0.1 to 1,,
